Measured values: publication PMC3495945, “Org 214007-0: A Novel Non-Steroidal Selective Glucocorticoid Receptor Modulator with Full Anti-Inflammatory Properties and Improved Therapeutic Index” (PLoS ONE, 2012)

Key:
[1] = system: anti-CD3-induced IL-2 release; assay: anti-CD3-induced IL-2 mouse model; format: in vivo; conditions: oral; for ED50: Mus musculus, 1 hour before anti-CD3 i.p., Balb/c mice, read-out: ED50, reduction of anti-CD3-induced IL-2 serum levels; for efficacy, inhibition of anti-CD3-induced IL-2: relative to 10 mg/kg A420983 (100%)
Experimental: (§1) For both the LPS-induced TNFα as well as the anti-CD3 induced IL-2 model, female Balb/c mice of 8–12 week old were used. Mice were treated orally with 0.2 ml compound or vehicle (water/mannitol (5%) with 5% DMSO/5% chremophore for the LPS model or with 0.5% gelatine for the anti-CD3 model). One hour after oral treatment animals were challenged i.p. with 0.2 ml of either 20 μg/mouse LPS (Sigma, E. coli serotype 055:B5) or 5 µg/mouse hamster anti-CD3 monoclonal (BD Biosciences Pharmingen, art. nr. 553057, clone 145-2C11). Ninety minutes after LPS injection or 3 hours after anti-CD3 challenge, blood samples were collected and serum levels of TNFα or IL-2 were determined via specific ELISAs (BD Biosciences Pharmingen, San Diego, CA, USA). In the experiment that included treatment with RU486 to block GR, mice were dosed subcutaneously with 50 mg/kg RU486 30 minutes before the oral compound dosing. ED50 and % efficacy (maximal percentage inhibition of TNFα or IL-2 release) are determined using a 3 parameter sigmoidal curve calculation. Statistical analysis of the results was performed using an one-way ANOVA (log) test.

LPS-induced TNFα release = assay: LPS-induced TNFα acute inflammation mouse model; format: in vivo; conditions: oral; for ED50: Mus musculus, 1 hour before LPS i.p., Balb/c mice, read-out: ED50, inhibition of LPS-induced serum TNFα
Experimental: as §1

HepG2 cells = assay: Gene expression profiling (microarray) in HepG2 cells; format: cell-based, human; conditions: HepG2, 1 μM compound, 6 hours; prednisolone set at 100%
Experimental: HepG2-8/97-WS.5 cells, deprived from serum for 18 hours, were stimulated with glucocorticoid and 0.5 mM cAMP for 6 hours. RNA was isolated and used for double stranded cDNA synthesis using the One-Cycle Target Labeling Kit (Affymetrix Santa Clara, CA). This cDNA was used as a template for the preparation of biotin-labeled cRNA using the GeneChip IVT Labeling Kit (Affymetrix Santa Clara, CA). Biotin-labeled cRNA was fragmented and hybridized at 45°C for 16–17 hours to the Human Genome U133A 2.0 Array or the Human Genome U133 Plus 2.0 Array (Affymetrix, Santa Clara, CA). (for more detailed information see Supportive Information) (SI text). Arrays were stained with phycoerythrin-streptavidin conjugate (Molecular Probes, Eugene, OR), and the signals were amplified by staining the array with biotin-labeled anti-streptavidin antibody (Vector Laboratories, Burlingame, CA) followed by phycoerythrin-streptavidin. […] Data was saved as raw image file and quantified using GCOS (Affymetrix). […]
HepG2-8/97-WS.5 cells were seeded at 2.10^5 cells/mL in a 24-well plate in DMEM/F12 medium (Gibco), supplemented with 80 U/mL penicillin, 80 μg/mL streptomycin and 5% Fetal Bovine Serum (Invitrogen). […] RNA quantity and quality were determined using the Agilent […] bioanalyzer. […] Data was saved as raw image file and quantified using GCOS (Affymetrix).

[2] = system: muscle tissue from arthritic mice; assay: Microarray on muscle tissue mRNA from CIA mice; format: in vivo, mouse; conditions: day 21, 2.5 hours after final oral dose, 1.5 mg/kg prednisolone or 0.3 mg/kg Org 214007-0, prednisolone = 100%
Excerpt: Besides these groups of mice, one group of healthy mice (sham-immunized and vehicle-treated) was included. Collected tissue was used to isolate mRNA for microarray analysis. […] We also calculated a mean fold change for all induced and repressed genes by both compounds derived from this microarray. […] Two and a half hours after the final treatment animals were sacrificed and samples were collected from the thigh muscle (musculus tensor fasciae latae and musculus rectus femoris). Samples were stored immediately at −80°C and send to Covance (Princeton, New Jersey) for RNA extraction and subsequent analysis of gene expression on the Mouse Genome 430A 2.0 array. For statistical analysis, the. CEL files obtained after hybridization were analyzed with the R (www.r-project.org) and the BioConductor software package (www.bioconductor.org) as described previously. Normalization was done using gcrma. Building of the experimental design and calculation of the ratios was done with the limma package. Differentially expressed probe sets were selected on basis of the fold change and the adjusted p-value (Benjamini-Hochberg correction). Multivariate data analysis and clustering was done with standard methods in the R software package (www.r-project.org). A therapeutic index for Org 214007-0 was calculated in the same way as was described for the THP-1 microarray data.

Structure (SMILES) | ED50 [1] | efficacy, inhibition of anti-CD3-induced IL-2 [1] | ED50 (LPS-induced TNFα release) | maximal efficacy, inhibition of LPS-induced TNFα release (LPS-induced TNFα release) | Max eff., induction of gene expression, micro-array (HepG2 cells) | Max. eff., mean induction of genes, microarray [2] | Max. eff., mean repression of genes, microarray [2]
Cc1nnsc1C(=O)N[C@H]1CCN2c3ccc(C#N)cc3[C@@H](C)c3ccccc3[C@@H]2C1 [Org 214007-0] | ~0.3 mg/kg | 75% | 0.5 mg/kg | 90% | 67% | 25.7% | 87.7%
C[C@]12C=CC(=O)C=C1CC[C@@H]1[C@@H]2[C@@H](O)C[C@@]2(C)[C@H]1CC[C@]2(O)C(=O)CO [prednisolone, reference compound] | ~10 mg/kg | 75% | 1 mg/kg | – | 100% | 100% | 100%
